As usually defined, the inhibition is the relative decrease from the control value, in per cent.

Data on five compounds can be found in PMC9465256, “Discovering monoacylglycerol lipase inhibitors by a combination of fluorogenic substrate assay and activity-based protein profiling” (Frontiers in Pharmacology, 2022).

The test system of one test is HCC827 cells. Description: Cell viability assay (CCK-8), HCC827. The settings on record: HCC827, 48 h; for IC50: Homo sapiens, read-out: Antiproliferation activity (pIC50 ± SEM) HCC827 (converted). It is filed as cell-based. As for the experimental part:
Various cancer cell lines, including human colon cancer cell line HT-29, ovarian cell line OVCAR-3, melanoma cell line B16-F10, skin squamous cancer cells A431, cervical cancer cells Hela, lung cancer cell lines A549, H1975, and HCC827, were purchased from American type culture collection (ATCC). A431, H1975, B16-F10, OVCAR-3, HT-29, HCC827, Hela, and A549 cells were cultured in Dulbecco’s modified Eagle medium (DMEM, Gibco) containing 10% fetal bovine serum (FBS, Gibco), penicillin (100 U/ml) and streptomycin (100 μg/ml). All cell lines were maintained in a humidified 37°C incubator with 5% CO2. The medium was refreshed every 2–3 days and the cells were passaged at ∼90% confluence by adding the fresh medium, followed by vigorously pipetting the resuspend cells. Of note, the cells were only washed with PBS when a significant number of dead cells were observed.
The antiproliferation activity of the compounds against the cancer cell lines was evaluated using Cell Counting Kit-8. Briefly, cells (∼1,000 per well) in 100 µl of culture medium were plated in a 96-well plate for 24 h and 100 µl of medium with different concentrations of the tested compounds was added to each well for 48 h. Then 10 μl of CCK8 solution (#CK04, Dojindo) was added and incubated at 37°C for 2 h. The absorbance of each well was measured with a plate reader (BioTeck) at 450 nm. Cell viability was calculated as follows: cell viability (%) = [(As-Ab)/(Ac-Ab)] × 100. Among them, As represents the absorbance of experimental wells, Ab represents the absorbance of blank wells and Ac represents the absorbance of control wells. The experiments were repeated at least three times and IC50 values were determined by plotting a log(inhibitor) v. s normalized response (Variable slope) dose–response curve generated using GraphPad Prism software.

Test [1] relates to serine hydrolases labeled by FP-TAMRA in cancer cells. Nature of the test: Competitive ABPP in cancer cell lysates: selectivity / potential targets. In kind it is biochemical. The note with it: 100 µM, FP-TAMRA 500 nM, in-gel analysis. The protocol:
To identify the potential off-targets of the compounds with anti-cancer activities, ABPP was applied. Cancer cells were seeded in the dishes and were washed with PBS, scraped, centrifugated (3,000 × g, 3 min) and pellets snap frozen in liquid in nitrogen. For ABPP experiments, the cell pellets were lysed by probe sonication (3 × 10 bursts) in PBS, followed by the determination of protein concentration of the intact cell lysate by Qubit assay. Subsequently, 20 µl of the cell lysate (1 mg/ml) was preincubated with 0.5 µl of DMSO (vehicle) or inhibitor (100 μM, finial concentration) for 30 min, followed by the treatment with FP-TAMRA (500 nM, final concentration) for 20 min. The reactions were then quenched by 10 µl sample buffer (×4). The obtained samples were directly loaded and resolved on SDS-PAGE gel (10% acrylamide). The gel-based ABPP results were then scanned and analyzed using a ChemiDoc MP system (Cy3 settings, BioRad).

The target of a further test is T1, human ABHD6 (Homo sapiens, UniProt Q9BV23).
T1 construct: expressed in transfected cells; host or cells: HEK293T (transient transfection; membrane fraction)
T1 sequence (Q9BV23 1-337): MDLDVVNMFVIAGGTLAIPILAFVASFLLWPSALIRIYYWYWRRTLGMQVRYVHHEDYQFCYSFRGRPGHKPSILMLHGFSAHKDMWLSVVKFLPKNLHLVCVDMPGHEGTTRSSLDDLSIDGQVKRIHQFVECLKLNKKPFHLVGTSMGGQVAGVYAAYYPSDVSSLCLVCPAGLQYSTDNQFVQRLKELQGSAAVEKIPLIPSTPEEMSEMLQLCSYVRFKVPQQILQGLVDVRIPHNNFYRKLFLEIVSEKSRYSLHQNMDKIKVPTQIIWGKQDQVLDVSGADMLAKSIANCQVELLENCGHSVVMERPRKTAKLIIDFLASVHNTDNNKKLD
Description: ABHD6 activity assay (AA-HNA fluorogenic substrate). It is filed as biochemical. The essentials: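 Membranes from HEK293T cells transiently overexpressing human ABHD6 (50 μg/ml final) were preincubated 30 min with inhibitor in 40 mM HEPES pH 7.5, 0.1 mg/ml BSA, 5% DMSO. Hydrolysis of 200 µM AA-HNA was followed by fluorescence for 30 min, activity taken as the 5–15 min slope.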

[2] abbreviates: 100 µM, AA-HNA substrate assay, Supplementary Table 2, read-out: ABHD6 Inhibition (%).

For the compound `Cl.N=c1ccn2c(n1)O[C@H]1[C@H](O)[C@@H](CO)O[C@H]12` [compound 1, Cyclocytidine HCl], the “Antiproliferation activity (pIC50 ± SEM) HCC827” value with HCC827 cells was 5.1 ± 0.2. In addition, the “selectivity / potential targets among serine hydrolases in cancer cells” value in test [1] was “No potential target was found”. For the same compound, the activity at human ABHD6 (setting [2]) stood at 89.8%.
Turning to `O=c1cc(-c2ccc(O)cc2)oc2cc(O)cc(O)c12` [compound 9, Apigenin], the IC50 in the test with HCC827 cells is greater than 10 µM. For the same compound, the activity at 100 µM on human ABHD6 (setting [2]) came out at 88.9%.
With `COc1ccc2cc3[n+](cc2c1OC)CCc1cc2c(cc1-3)OCO2` [compound 17, Berberine chloride], in the test with HCC827 cells, the IC50 is greater than 10 µM. Also, the “selectivity / potential targets among serine hydrolases in cancer cells” value in test [1] is reported as “No potential target was found”. The activity at 100 µM on human ABHD6 (setting [2]) stood at 112%.
On to `C[C@H]1COC2=C1C(=O)C(=O)c1c2ccc2c1CCCC2(C)C` [compound 23, Cryptotanshinone], for which the IC50 with HCC827 cells is 6.31 µM. In addition, in test [1], the “selectivity / potential targets among serine hydrolases in cancer cells” value is recorded as “broad-spectrum inhibitor by targeting a number of serine hydrolases in cancer cells”. Also, at human ABHD6 (setting [2]), the activity at 100 µM was determined as 62.5%. Further, the inhibition at 100 µM on human ABHD6 (recombinant human ABHD6, 100 µM compound) was less than 50%. Besides, the “ABHD6 inhibition (%)” value at human ABHD6 (recombinant human ABHD6, 100 µM compound, 100 µM) is on record as 37%.
For `COc1ccc(C(C)=O)c(O)c1` [compound 64, Paeonol], the IC50 in the test with HCC827 cells was greater than 10 µM. Also, in test [1], the “selectivity / potential targets among serine hydrolases in cancer cells” value is “No potential target was found”. Also, the activity at 100 µM on human ABHD6 (setting [2]) amounted to 96.2%.
